Test results as given in US10869846B2, “N-acetylcysteine amide (NAC amide) in the treatment of diseases and conditions associated with oxidative stress” (SENTIENT LIFESCIENCES, INC., priority 2005, dated 2020).

What was measured:
[1] = system: mouse; conditions: subcutaneous injection; cited from earlier work
[2] = system: PC12 cells; test: MDA measurement in glutamate-exposed cells; format: cell-based; conditions: GLU (10 mM) alone, 24 h
Procedure: MDA measurement: To prepare the solution, 350 μl of straight cell homogenate, 100 μl of 500 ppm BHT (butylated hydroxytoluene), and 550 μl of 10% TCA (trichloroacetic acid) were combined and boiled for 30 min. The tubes were cooled on ice and centrifuged for 10 min at 2500 rpm. Five hundred (500) μl of the supernatant were removed and 500 μl of TBA (thiobarbituric acid) were added. The tubes were boiled again for 30 min, and then cooled on ice. From this solution, 500 μl were removed, added to 1.0 ml of n-butanol, vortexed, and centrifuged for 5 min at 60 g to facilitate a phase separation. The top layer was then filtered through 0.45 μm filters and injected onto a 5 μm C18 column (250×4.6 mm) on a reverse phase HPLC system. The mobile phase consisted of 69.4% 5 mM sodium phosphate buffer (pH=7.0), 30% acetonitrile, and 0.6% THF (tetrahydrofuran). The excitation wavelength was 515 nm; the emission wavelength was 550 nm (Draper H. H. et al., Free Radic Biol Med., 15(4):353-63, 1993).
Cells were plated and grown for 24 hours, and then they were exposed to glutamate (10 mM) in the presence or absence of NAC amide (750 μM). Twenty-four hours later, the cells were harvested and malondialdehyde levels were measured. Values represent means.+−.SD. Statistically different values of *P<0.002 and **P<0.05 were determined, compared to control. ***P<0.05 compared to glutamate-treated group.

[3] = system: PC12 cells; test: GSH measurement in cells (NPM/HPLC); format: cell-based; conditions: GLU (10 mM) alone
Procedure: Cells were seeded at a density of 80,000 cells/cm^2 on poly-D-lysine coated (0.05 mg/ml) 75 cm^2 flasks (5 ml/flask) for GSH measurement. […] After the incubation period, cells were removed from the cultures and homogenized in serine borate buffer (100 mM Tris-HCl, 10 mM boric acid, 5 mM L-serine, 1 mM DETAPAC, pH 7.4). Twenty (20) μl of the diluted cell homogenate were added to 230 μl of serine borate buffer and 750 μl of NPM (1 mM in acetonitrile). The resulting solutions were incubated at room temperature for 5 min. The reaction was stopped by the addition of 5 μl of 2N HCl. The samples were then filtered through a 0.2 μm Acrodisc filter and injected onto the HPLC system.
[…] Values represent means.+−.SD. Statistically different values of *P<0.05 were determined, compared to control. **P<0.001 compared to glutamate-treated group. ***P<0.05 compared to glutamate-treated group.

SMILES | toxicity relative to morphine [1] [times] | MDA Levels [2] [nM/100 mg protein] | GSH Levels [3] [nM/mg protein]
CN1CC[C@]23c4c5ccc(O)c4O[C@H]2C(=O)C=C[C@H]3[C@H]1C5 [Morphinone, morphinone] | 9 |  | 
N[C@@H](CCC(=O)O)C(=O)O [GLU, glutamate, reference compound] |  | 247 ± 26 | 23 ± 4.2
